According to patent US10968214B2, “KRas G12C inhibitors” (Eli Lilly and Company, priority 2018, dated 2021):
Where two headings read alike, the source gives them in different places.

How the values were obtained:
MIA Paca-2 = experiment: Combination 4 day growth assay (Cell TiterGlo), MIA Paca-2; type: cell-based; conditions: Homo sapiens, MIA PaCa-2, 96 h, single treatment, read-out: Absolute IC50
Method: Cell lines for this study are obtained from ATCC and grown under ATCC recommended conditions, except for LXFA-983L, which is obtained from Oncotest/Charles Rivers Laboratories, Wilmington, Mass. and D122-96, which is obtained from L. Eisenbach (Weizman Institute of Science, Rehovot, Israel)—both grown under recommended conditions. […] The proliferation assay is performed as a 4 day growth assay using Cell TiterGlo® as the readout. Briefly, cells are plated in 96-well cell culture plates and allowed to adhere overnight at 37° C. The following day, cells are treated with compounds, either single treatments or combination treatments. First, the testing compounds are serially diluted in DMSO, followed by dilution into media as a 5× concentration with 1% DMSO, and finally added to cells in media to dilute to 1×. The cells are incubated at 37° C. for 4 more days. At the end of the incubation period, Cell TiterGlo® reagent is mixed and added to the wells. After 10 minutes, the luminescence is read by a Perkin Elmer Envision instrument. Absolute IC50 values generated by a 4-parameter logistics model for the single and combination treatments are generated, followed by combination indexes for each combination treatment and cell line. The combination IC50 values are adjusted based on the total concentration of each compound when added together. […] The combination index (CI) measures the degree to which the potency of a combination therapy differs from the expected-if-additive potency and is based on the Loewe definition of additivity.
[formula] Where • CAy and CBy are the concentrations of therapies A and B that produce an effect, y, when given in combination • ICAy and ICBy are the concentrations of A and B that produce an effect, y, when given individually The biological interpretation of the combination index is as follows: synergistic if the combination index <0.5, additive if the combination index is between 0.5 and 2, and antagonistic if the combination index is >2.

LXFA-983L = experiment: CellTiterGlo Cell Proliferation Assay, LXFA-983L; type: cell-based; conditions: KRas G12C, Lung, 96 hr
Method: A panel of tumor cell lines harboring KRas G12C or other KRas mutations are collected (Table 6). All cell lines are from ATCC or other sources indicated.
Typically cells are cultured in RPMI1640 or Dulbecco's modified Eagle's medium (DMEM, GIBCO) supplemented with 10% FBS (GIBCO, Invitrogen). For 2D culture cells (4×10^3/well) maintained in growth medium described above, are plated onto 96 well tissue culture plates Corning® Cat. 3603) a day before the treatment. For 3D culture 8000 cells/well are seeded onto 96 well ultra-low attachment tissue culture plates (Corning, #3474). The cells are treated compound for 96 hr, and then are analyzed for viability using the CellTiterGlo® Luminescent Cell Viability Assay® (Promega #G7572 for 2D and Promega #G9683 for 3D cultures) according to manufacturer's instructions and an EnVision™ plate reader. Nonlinear regression and sigmoidal dose-response curves are used to calculate the half maximal inhibitory concentration (IC50) with GraphPad Prism 4® software.

IC50 (MIA Paca-2): 0.022 µM
SMILES: C=CC(=O)N1CCN(c2ncnc3c(F)c(-c4ccc(F)c5sc(N)nc45)c(Cl)cc23)CC1 [Example 1, 1-{4-[7-(2-Amino-7-fluoro-1,3-benzothiazol-4-yl)-6-chloro-8-fluoroquinazolin-4-yl]piperazin-1-yl}prop-2-en-1-one]
IC50 (LXFA-983L; read-out: IC50 (μM) in 2 D cell proliferation): 1.34 µM
IC50 (LXFA-983L; read-out: IC50 (μM) in 3 D spheroid cell proliferation): 0.05 µM
